These results are taken from patent publication US5734081A, “Arylthio compounds” (Warner-Lambert Company, priority 1995, dated 1998).

Each structure is given as a SMILES string.

Data set [1] relates to HIV-1. Briefly: CEM cell assay, anti-HIV-1 activity. The data set is classed as cell-based. As to conditions: Human immunodeficiency virus 1, CCRF-CEM, HIV-1, 6 or 7 days, read-out: EC50 (Effective Concentration which protects cells from viral cytopathic effects). An excerpt: The test systems utilized to establish the antiviral activity of the arylthio compounds of this invention are well recognized in the art and are routinely employed for such purpose. For example, the assay utilized to evaluate the compounds activity against the HIV virus is that employed by the U.S. National Cancer Institute as described by Weislow O. S., et al., J. Natl. Cancer Inst., 1989;81:577-586, incorporated herein by reference.
The procedure is designed to detect agents acting at any stage of the virus reproductive cycle. The assay basically involves the killing of T4 lymphocytes by HIV. Small amounts of HIV are added to cells, and at least two complete cycles of virus reproduction are necessary to obtain the required cell killing. Agents which interact with virions, cells, or virus gene-products to interfere with viral activities will protect cells from cytolysis. The system is automated in several features to accommodate large numbers of candidate agents, and is generally designed to detect anti-HIV activity. However, compounds which degenerate or are rapidly metabolized in the culture conditions may not show activity in this screen.
(§1) Yet another test system employed to determine antiviral activity is called the CEM cell assay.
(§2) T4 lymphocytes (CEM cell line) are exposed to HIV at a virus to cell ratio approximately 0.05, and plated along with noninfected control cells in 96-well microliter plates.
(§3) The candidate agent is dissolved in dimethyl sulfoxide (unless otherwise noted), then diluted 1:200 in cell culture medium. Further dilutions (half-log10) are prepared before adding to an equal volume of medium containing either infected or noninfected cells. Cultures are incubated at 37° in a 5% carbon dioxide atmosphere for 6 or 7 days. The tetrazolium salt, XTT, is added to all wells, and cultures are incubated to allow formazan color development by viable cells (J. National Cancer Institute, 1989;81:577-586). Individual wells are analyzed spectrophotometrically to quantitate formazan production, and in addition are viewed microscopically for detection of viable cells confirmation of protective activity.
(§4) Drug-tested virus-infected cells are compared with drug-treated noninfected cells and with other appropriate controls (untreated infected and untreated noninfected cells, drug-contain wells without cells, etc.) on the same plate. Data are reviewed in comparison with other tests done at the same time and a determination about activity is made.

The nature of data set [2]: CEM cell growth inhibition (XTT, noninfected cells). The data set is classed as cell-based. The settings on record: human, CEM Cell Assay, drug alone, read-out: IC50 (Inhibitory Concentration where drug alone inhibits cell growth). How it is done:
as §1, §2, §3, §4

The target in data set [3] is T1, HIV-1 Nucleocapsid Protein (NCp7) (Human immunodeficiency virus type 1 group M subtype B, UniProt P12493).
T1 construct: The NCp7 protein containing 2 Zn-fingers and 2 Zn ions is incubated with drug
Briefly: Zinc extrusion assay (TSQ fluorescence) from the zinc fingers of HIV-1 nucleocapsid protein (NCp7). It counts as biochemical. An excerpt:
The compounds of the present invention cause the extrusion of zinc from the nucleocapsid protein (NCp7) of HIV-1. The NC protein is highly conserved among all retroviruses (South T., Blake P., et al., Biochemistry, 1990;29:7786) and is essential for viral infectivity (Aldovini A. and Young R., J. Virology, 1990;64:1920 and Gorelick R., Nigida S., et al., J. Virology, 1990;64:3207). The zinc is normally held in NC proteins by 1 or 2 zinc fingers. In the case of HIV-1, 2 zinc fingers are present (Summers M., South T., et al., Biochemistry, 1990;29:329) and are involved specifically with the PSI site on viral RNA which controls the packaging of viral RNA. Interference of this packaging causes the formation of non-infectious virions (Dannull J., Surovoy A., et al., EMBO, 1994;13:1525). It has previously been shown that compounds that cause zinc extrusion have potent anti-HIV activity in multiple cell lines and against all retroviruses (Rice W., Schaeffer C., et al., Nature, 1993;361:473).
A fluorescence-based assay has been developed to monitor the ejection of zinc from purified HIV-1 NCp7. The fluorophore, N-(6-methoxy-8-quinolyl)-p-toluenesulfonamide (TSQ), has an increased fluorescent signal upon bonding zinc ion in solution. The NCp7 protein containing 2 Zn-fingers and 2 Zn ions is incubated with drug causing the extrusion of Zn ions. The released Zn is then sequestered by the TSQ and the increased fluorescence monitored relative to control. […] Fluorescence (excitation 355 nm emission 400 nm) was monitored versus time. Controls were the NCp7 under assay conditions without drug, and apo NCp7 (no Zn) with drug. The % Zn extrusion was calculated based on the actual fluorescence measured divided by the fluorescence of all theoretical Zn extruded (5.6 μM)×100.
Table 1 below presents data for several invention compounds evaluated in the zinc extrusion assay described above.

Where [4] appears, read: 10 μM compound, 2.8 μM NCp7, pH 7.4, 26° C., 90 minutes.

Regarding `CC(C)(SSc1ccccc1C(=O)Nc1ccc(S(N)(=O)=O)cc1)C(N)C(=O)O` (stereo not drawn) [Example 138, 2-Amino-3-methyl-3-[2-(4-sulfamoylphenylcarbamoyl)phenyldisulfanyl]-butyric acid], in data set [1], the EC50 is 6.3 µM. Further, the CC50 in data set [2] was determined as 66 µM.
For the compound `Cc1cccc(C(=O)N[C@@H](CC(C)C)C(=O)O)c1SSc1c(C)cccc1C(=O)N[C@@H](CC(C)C)C(=O)O` [Example 56, [S-(R*,R*)]2-{2-[2-(1-Carboxy-3-methyl-butylcarbamoyl)-6-methyl-phenyldisulfanyl]-3-methyl-benzoylamino}-4-methyl-pentanoic acid], the “% Zinc Extrusion Relative to Control” value in data set [3] (setting [4]) is on record as 73%.
For the compound `CC(C)(C)C(=O)Nc1ccc(SSc2ccc(NC(=O)C(C)(C)C)cc2C(N)=O)c(C(N)=O)c1` [Example 73, 2,2'-Dithiobis[5-[(2,2-dimethyl-1-oxopropyl)amino]benzamide]], in data set [1], the EC50 came to 5 µM. In addition, the CC50 in data set [2] is 70 µM.
Turning to `Cc1ccc(SSc2ccc(C)cc2C(=O)Nc2ccc(S(N)(=O)=O)cc2)c(C(=O)Nc2ccc(S(N)(=O)=O)cc2)c1` [Example 23, 2,2'-Dithiobis[N-[4-(aminosulfonyl)phenyl]-5-methylbenzamide]], the EC50 in data set [1] was determined as 4.3 µM. Besides, in data set [2], the CC50 was over 100 µM.
The corresponding values for `CC(C)(C)[C@H](NC(=O)c1ccccc1SSc1ccccc1C(=O)N[C@H](C(=O)O)C(C)(C)C)C(=O)O` [Example 48, L,L-2-{2-[2-(1-Carboxy-2,2-dimethyl-propylcarbamoyl)-phenyldisulfanyl]-benzoylamino}-3,3-dimethyl-butyric acid] are 18 µM and over 100 µM.
Take `COc1cccc(C(=O)Nc2ccc(S(N)(=O)=O)cc2)c1SSc1c(OC)cccc1C(=O)Nc1ccc(S(N)(=O)=O)cc1` [Example 18, 2,2'-Dithiobis[N-[4-(aminosulfonyl)phenyl]-3-methoxybenzamide]]: the “% Zinc Extrusion Relative to Control” value in data set [3] (setting [4]) is 67%.
Consider `COc1ccc(C(=O)N[C@@H](CC(C)C)C(=O)O)c(SSc2cc(OC)ccc2C(=O)N[C@@H](CC(C)C)C(=O)O)c1` [Example 54, [S-(R*,R*)]2-{2-[2-(1-Carboxy-3-methyl-butyl]carbamoyl)-5-methoxy-phenyldisulfanyl]-4-methoxybenzoylamino}-4-methyl-pentanoic acid], for which the EC50 in data set [1] came to 6.9 µM. Moreover, in data set [2], the CC50 amounted to 75 µM.
The corresponding values for `NS(=O)(=O)c1ccc(NC(=O)c2ccc(F)cc2SSc2cc(F)ccc2C(=O)Nc2ccc(S(N)(=O)=O)cc2)cc1` [Example 16, 2,2'-Dithiobis[N-[4-(aminosulfonyl)phenyl]-4-fluorobenzamide]] are 2.5 µM and 66 µM.
Consider `CS(=O)(=O)c1ccc(NC(=O)c2ccccc2SSc2ccccc2C(=O)Nc2ccc(S(C)(=O)=O)cc2)cc1` [Example 94, 2,2'-Dithiobis[N-[4-(methylsulfonyl)phenyl]benzamide]], for which the “% Zinc Extrusion Relative to Control” value in data set [3] (setting [4]) is on record as 62%.
On the same count and under the same terms, the result for `COc1ccc(SSc2ccc(OC)cc2C(N)=O)c(C(N)=O)c1` [Example 70, 2,2'-Dithiobis[5-methoxy-benzamide]] reads 74%.
Consider `O=C(O)CN(CCN(CC(=O)O)CC(=O)O)CC(=O)O` [EDTA, reference compound], for which the “% Zinc Extrusion Relative to Control” value in data set [3] (EDTA, 24 hours) came to 10%.
Take `CC(C)C[C@H](NC(=O)c1ccc(F)cc1SSc1cc(F)ccc1C(=O)N[C@@H](CC(C)C)C(=O)O)C(=O)O` [Example 51, [S-(R*,R*)]2-{2-[2-(1-Carboxy-3-methyl-butylcarbamoyl)-5-fluoro-phenyldisulfanyl]-4-fluorobenzoylamino}-4-methyl-pentanoic acid]: the EC50 in data set [1] came to 8.4 µM. Also, the CC50 in data set [2] was found to be 64 µM.
Take `O=C(c1ccccc1SSc1ccccc1C(=O)N1CCSCC1)N1CCSCC1` [Example 113, {2-[2-(Thiomorpholine-4-carbonyl)-phenyldisulfanyl]phenyl}-thiomorpholin-4-yl-methanone]: the “% Zinc Extrusion Relative to Control” value in data set [3] (setting [4]) worked out at 67%.
With `Cc1ccc(C(=O)N[C@@H](CC(C)C)C(=O)O)c(SSc2cc(C)ccc2C(=O)N[C@@H](CC(C)C)C(=O)O)c1` [Example 57, [S-(R*,R*)]2-{2-[2-(1-Carboxy-3-methyl-butylcarbamoyl)-5-methyl-phenyldisulfanyl]-4-methylbenzoylamino}-4-methyl-pentanoic acid], in data set [1], the EC50 turned out to be 6 µM. Moreover, the CC50 in data set [2] was determined as 71 µM.
Take `NS(=O)(=O)c1ccc(NS(=O)(=O)c2ccccc2SSc2ccccc2S(=O)(=O)Nc2ccc(S(N)(=O)=O)cc2)cc1` [Example 145]: the “% Zinc Extrusion Relative to Control” value in data set [3] (setting [4]) was found to be 65%.
The same measure, in the same setting: with `O=C(O)C[C@H](NC(=O)c1ccccc1SSc1ccccc1C(=O)N[C@@H](CC(=O)O)C(=O)O)C(=O)O` [Example 62, L,L-2-{2-[2-(1,2-Dicarboxy-ethylcarbamoyl)-phenyldisulfanyl]-benzoylamino}-succinic acid] the figure was 73%; with `O=C(Nc1ccc(Cl)cc1Cl)c1ccccc1SSc1ccccc1C(=O)Nc1ccc(Cl)cc1Cl` [Example 84, 2,2'-Dithiobis[N-(2,4-dichlorophenyl)benzamide]], 50%.
On the same count and under the same terms, with `NS(=O)(=O)c1ccc(NC(=O)c2cccnc2SSc2ncccc2C(=O)Nc2ccc(S(N)(=O)=O)cc2)cc1` [Example 25, 2,2'-Dithiobis[N-[4-(aminosulfonyl)phenyl]-3-pyridinecarboxamide]] the figure was 73%.
For the compound `COC(=O)c1ccccc1SSc1ccccc1C(=O)Nc1ccc(S(N)(=O)=O)cc1` [Example 137, 2-[2-(4-Sulfamoylphenylcarbamoyl)phenyldisulfanyl]benzoic acid, methyl ester], the EC50 in data set [1] was 8.6 µM. The CC50 in data set [2] was 65 µM.
In the case of `O=C(c1ccccc1)c1ccccc1SSc1ccccc1C(=NO)c1ccccc1` [Example 150, {2-[2-(hydroxyimino-phenyl-methyl)-phenyldisulfanyl]phenyl}-phenyl-methanon], in data set [3] (setting [4]), the “% Zinc Extrusion Relative to Control” value is 36%.
On to `NS(=O)(=O)c1ccccc1NC(=O)c1ccccc1SSc1ccccc1C(=O)Nc1ccccc1S(N)(=O)=O` [Example 102, 2,2'-Dithiobis[N-[2-(aminosulfonyl)phenyl]benzamide]], for which the EC50 in data set [1] came to 1.7 µM. Further, the CC50 in data set [2] amounted to 68 µM.
For the compound `CC(C)NS(=O)(=O)c1ccc(NC(=O)c2ccccc2SSc2ccccc2C(=O)Nc2ccc(S(=O)(=O)NC(C)C)cc2)cc1` [Example 3, 2,2'-Dithiobis-N-[4[[(1-methylethyl)amino]sulfonyl]phenyl]benzamide], in data set [3] (setting [4]), the “% Zinc Extrusion Relative to Control” value worked out at 73%.
As to `CC(=O)Nc1ccc(SSc2ccc(NC(C)=O)cc2C(=O)N[C@@H](CC(C)C)C(=O)O)c(C(=O)N[C@@H](CC(C)C)C(=O)O)c1` [Example 60, [S-(R*,R*)]2-{5-Acetylamino-2-[4-acetylamino-2-(1-carboxy-3-methyl-butylcarbamoyl)-phenyldisulfanyl]-benzoylamino}-4-methyl-pentanoic acid], the “% Zinc Extrusion Relative to Control” value in data set [3] (setting [4]) amounted to 65%.
